Data from ChEMBL document CHEMBL2157860, “Optimization of a potent class of arylamide colony-stimulating factor-1 receptor inhibitors leading to anti-inflammatory clinical candidate 4-cyano-N-[2-(1-cyclohexen-1-yl)-4-[1-[(dimethylamino)acetyl]-4-piperidinyl]phenyl]-1H-imidazole-2-carboxamide (JNJ-28312141)” (J Med Chem, 2011).
Values after ≈ are worked out from the molar mass of the structure shown.

Columns and labels:
[1] = Metabolic stability in mouse liver microsomes assessed as compound remaining after 10 mins; type: ADME, Microsome; settings: read-out: Stability
[2] = Cmax in CD1 mouse at 5 mg/kg, po; type: ADME, organism-based; parameters: dose 5 mg/kg, route oral; settings: in vivo
[3] = AUClast in CD1 mouse at 5 mg/kg, po; type: ADME, organism-based; parameters: time 0 - last, dose 5 mg/kg, route oral; settings: plasma
[4] = Metabolic stability in human liver microsomes assessed as compound remaining after 10 mins; type: ADME, Microsome; settings: read-out: Stability
[5] = Solubility of the compound in PBS; type: physicochemical
[6] = (§1) Half life in CD1 mouse at 0.5 mg/kg, iv; type: ADME, organism-based; parameters: dose 0.5 mg/kg, route intravenous; settings: CD1, mouse, in vivo
[7] = (§2) Apparent volume of distribution in CD1 mouse at 0.5 mg/kg, iv; type: ADME, organism-based; parameters: dose 0.5 mg/kg, route intravenous; settings: CD1, mouse, in vivo, read-out: Vz
[8] = Clearance in CD1 mouse at 0.5 mg/kg, iv; type: ADME, organism-based; parameters: dose 0.5 mg/kg, route intravenous; settings: in vivo
[9] = Half life in CD1 mouse at 5 mg/kg, po; type: ADME, organism-based; parameters: dose 5 mg/kg, route oral; settings: in vivo
[10] = Oral bioavailability in CD1 mouse at 5 mg/kg; type: ADME, organism-based; settings: in vivo
[11] = Tmax in CD1 mouse at 5 mg/kg, po; type: ADME, organism-based; parameters: dose 5 mg/kg, route oral; settings: in vivo
[12] = Drug uptake in CD1 mouse at 5 mg/kg, po after 4 hrs; type: ADME, organism-based; parameters: dose 5 mg/kg, route oral; settings: in vivo, read-out: Drug uptake
Mus musculus [13] = assay: (§3) Drug uptake in CD1 mouse at 5 mg/kg, po after 8 hrs; type: ADME, organism-based; parameters: dose 5 mg/kg, route oral; settings: mouse, in vivo, 8 h, BLD = below limit of detection
Liver = assay: Metabolic stability in mouse liver microsomes assessed as glutathione conjugation at 20 to 40 uM after 1 hr by LC/MS analysis; type: ADME, Microsome
Mus musculus [14] = assay: as §1; type: ADME, organism-based; parameters: dose 0.5 mg/kg, route intravenous; settings: mouse, in vivo
Mus musculus [15] = assay: as §2; type: ADME, organism-based; parameters: dose 0.5 mg/kg, route intravenous; settings: mouse, in vivo
[16] = as §3; type: ADME, organism-based; parameters: dose 5 mg/kg, route oral; settings: CD1, mouse, in vivo, read-out: Drug uptake

remaining at 10 min [1]	Cmax [2]	AUC(0-t) [3]	remaining at 10 min [4]	solubility [5]	half-life [6]	Vd [7]	clearance [8]	half-life [9]	bioavailability [10]	Compound	further results
81%	296 ng/mL	1020 ng·h/mL	87%	37.3 µM (≈ 17.2 µg/mL)	1.36 h	7.11 L/kg	60.6 mL/min/kg	2.33 h	83%	CN(C)CC(=O)N1CCC(c2ccc(NC(=O)c3nc(C#N)c[nH]3)c(C3=CCCCC3)c2)CC1	
77%			77%							N#Cc1c[nH]c(C(=O)Nc2ccc(C3CCN(c4ccccn4)CC3)cc2C2=CCCCC2)n1	
93%			100%	11.8 µM (≈ 5.06 µg/mL)						N#CCCN1CCC(c2ccc(NC(=O)c3nc(C#N)c[nH]3)c(C3=CCCCC3)c2)CC1	
89%			100%	> 40 µM						N#Cc1c[nH]c(C(=O)Nc2ccc(C3CCN(CCO)CC3)cc2C2=CCCCC2)n1	
94%			100%							N#Cc1c[nH]c(C(=O)Nc2ccc(C3CCN(C(CO)CO)CC3)cc2C2=CCCCC2)n1	
98%	866 ng/mL	2130 ng·h/mL	94%	4.2 µM (≈ 2.02 µg/mL)	1.44 h	3.84 L/kg	30.7 mL/min/kg	1.55 h	88%	CS(=O)(=O)CCN1CCC(c2ccc(NC(=O)c3nc(C#N)c[nH]3)c(C3=CCCCC3)c2)CC1	
79%	55 ng/mL	141 ng·h/mL	81%	28.6 µM (≈ 12.4 µg/mL)	1.39 h	6.43 L/kg	53.3 mL/min/kg	0.88 h	9.8%	N#Cc1c[nH]c(C(=O)Nc2ccc(C3CCN(CC(N)=O)CC3)cc2C2=CCCCC2)n1	
70%			98%							N#Cc1c[nH]c(C(=O)Nc2ccc(C3CCN(CC(=O)O)CC3)cc2C2=CCCCC2)n1	
100%			89%							N#Cc1c[nH]c(C(=O)Nc2ccc(C3CCN(C(=O)[C@H](O)CO)CC3)cc2C2=CCCCC2)n1	
79%			67%							N#Cc1c[nH]c(C(=O)Nc2ccc(C3CCN(C(=O)CNCCO)CC3)cc2C2=CCCCC2)n1	
60%			69%							CN(CCO)CC(=O)N1CCC(c2ccc(NC(=O)c3nc(C#N)c[nH]3)c(C3=CCCCC3)c2)CC1	
86%	24 ng/mL	125 ng·h/mL	100%	0.91 µM (≈ 0.451 µg/mL)	1.2 h	1.58 L/kg	23.9 mL/min/kg	1.55 h	2.3%	CS(=O)(=O)CC(=O)N1CCC(c2ccc(NC(=O)c3nc(C#N)c[nH]3)c(C3=CCCCC3)c2)CC1	
100%			89%							N#Cc1c[nH]c(C(=O)Nc2ccc(C3CCN(C(=O)Cc4c[nH]cn4)CC3)cc2C2=CCCCC2)n1	
93%			94%							CC(C)(N)C(=O)N1CCC(c2ccc(NC(=O)c3nc(C#N)c[nH]3)c(C3=CCCCC3)c2)CC1	
61%	24 ng/mL	129 ng·h/mL	80%	8.2 µM (≈ 3.79 µg/mL)	2.41 h	10.3 L/kg	49.2 mL/min/kg	1.63 h	9.3%	N#Cc1c[nH]c(C(=O)Nc2ccc(C3CCN(C(=O)NCCO)CC3)cc2C2=CCCCC2)n1	
70%			78%							N#Cc1c[nH]c(C(=O)Nc2ccc(C3CCN(C(N)=O)CC3)cc2C2=CCCCC2)n1	
86%	209 ng/mL	454 ng·h/mL	95%	26.1 µM (≈ 10.9 µg/mL)	1.2 h	2.8 L/kg	27 mL/min/kg	1.88 h	15%	CC(=O)N1CCC(c2ccc(NC(=O)c3nc(C#N)c[nH]3)c(C3=CCCCC3)c2)CC1	Tmax [11]: 0.5 h; concentration at 4 h [12]: 54 ng/mL; concentration at 8 h [16]: 9 ng/mL; Stability (Liver): Stable

Second part, the molecule before the results:

Compound	remaining at 10 min [1]	Cmax [2]	AUC(0-t) [3]	remaining at 10 min [4]	solubility [5]	half-life [6]	Vd [7]	clearance [8]	half-life [9]	bioavailability [10]	further results
N#Cc1c[nH]c(C(=O)Nc2ccc(C3CCNCC3)cc2C2=CCCCC2)n1.O=C(O)C(F)(F)F	96%	50 ng/mL	95.2 ng·h/mL	100%	38.8 µM	7.16 h	32 L/kg	51.7 mL/min/kg	2 h	12%	Tmax [11]: 0.25 h; concentration at 4 h [12]: 7 ng/mL; Drug uptake (Mus musculus [13]): BLD; Stability (Liver): Stable
N#Cc1c[nH]c(C(=O)Nc2ccc(C3CCN(Cc4ccccn4)CC3)cc2C2=CCCCC2)n1	79%			75%							
N#Cc1c[nH]c(C(=O)Nc2ccc(C3CCN(CCN4CCOCC4)CC3)cc2C2=CCCCC2)n1	96%	461 ng/mL	1550 ng·h/mL	77%	25.9 µM (≈ 12.7 µg/mL)				2.37 h	101%	t1/2 (Mus musculus [14]): 0.23 h; Vz (Mus musculus [15]): 8.99 L/kg
N#Cc1c[nH]c(C(=O)Nc2ccc(C3CCN(C(=O)c4cccnc4)CC3)cc2C2=CCCCC2)n1	66%			56%							
N#Cc1c[nH]c(C(=O)Nc2ccc(C3CCN(C(=O)c4ccc[n+]([O-])c4)CC3)cc2C2=CCCCC2)n1	89%			100%							
N#Cc1c[nH]c(C(=O)Nc2ccc(C3CCN(C(=O)c4cc[n+]([O-])cc4)CC3)cc2C2=CCCCC2)n1	92%			100%							
Cn1cnc(CC(=O)N2CCC(c3ccc(NC(=O)c4nc(C#N)c[nH]4)c(C4=CCCCC4)c3)CC2)c1	90%	81 ng/mL	101 ng·h/mL	82%	36.7 µM (≈ 18.3 µg/mL)	0.54 h	3.85 L/kg	81.8 mL/min/kg	0.4 h	13%	
N#Cc1c[nH]c(C(=O)Nc2ccc(C3CCN(C(=O)Cc4ccccn4)CC3)cc2C2=CCCCC2)n1	37%			34%	1.6 µM (≈ 0.791 µg/mL)						
N#Cc1c[nH]c(C(=O)Nc2ccc(C3CCN(C(=O)Cc4cccnc4)CC3)cc2C2=CCCCC2)n1	21%			28%	10.4 µM (≈ 5.14 µg/mL)						
N#Cc1c[nH]c(C(=O)Nc2ccc(C3CCN(C(=O)Cc4ccncc4)CC3)cc2C2=CCCCC2)n1	24%	118 ng/mL	68 ng·h/mL	11%	0.39 µM (≈ 0.193 µg/mL)	0.41 h	7.27 L/kg	205 mL/min/kg	0.23 h	18%	
N#Cc1c[nH]c(C(=O)Nc2ccc(C3CCN(C(=O)CCN4CCOCC4)CC3)cc2C2=CCCCC2)n1	23%			57%							
N#Cc1c[nH]c(C(=O)Nc2ccc(C3CCN(C(=O)CN4CCOCC4)CC3)cc2C2=CCCCC2)n1	23%			66%							
CC1CCN(c2cc(N3CCN(C)CC3)ccc2NC(=O)c2ccc(C#N)o2)CC1		285 ng/mL	1160 ng·h/mL			3 h	12.3 L/kg	46 mL/min/kg	3.1 h	75%	Tmax [11]: 0.5 h; concentration at 4 h [12]: 183 ng/mL; concentration at 8 h [16]: 64 ng/mL
